Measured values: patent US10104891B2 (priority 2014, dated 2018)

How the values were obtained:
Assay type in all cases: in vivo
[1] = test system: Pseudoperonospora cubensis; experiment: Test 2: control effect against cucumber downy mildew; details: control value vs untreated section
Protocol: (§1) A 10% wettable powder created according to the Pharmaceutical Formulation Example 1 was diluted with a Tween20 solution prepared to a concentration of 1/5000, then the compound of formula [1] was prepared to a concentration of 4 ppm. Further, the compound of formula [1] in Test 4 was adjusted to a concentration of 1,000 ppm.
<Test 2 Test of Control Effect Against Cucumber Downy Mildew>
(§2) Test suspension was applied to cucumber at the 2 leaf stage (species: Sagami hanjiro) in an amount of 20 ml per seedling. One day after application, zoospore suspension of Pseudoperonospora cubensis adjusted to a concentration of 1.0×10^4 units/ml was misted/inoculated, and the seedlings were incubated in a moist chamber adjusted to 22° C. for 16 hr. Then, the onset of the disease was induced in the chamber, and the lesion area rate on the leaves 5 days after inoculation was investigated to compute the control value using the formula below. control value={1−onset area rate of the leaves that were applied the test agent/onset area rate of untreated leaves}×100 Computational formula of the control value: […]

[2] = test system: Plasmopara viticola; experiment: Test 3: control effect against grape downy mildew; details: control value vs untreated section
Protocol: as §1
<Test 3 Test of Control Effect Against Grape Downy Mildew>
as §2, with “grape seedling” for “cucumber at the 2 leaf stage”, “Neomuscat)” for “Sagami hanjiro)”, “Plasmopara viticola” for “Pseudoperonospora cubensis”

[3] = test system: Phytophthora infestans; experiment: whole plant or invertebrate; details: tomato late blight; control value vs untreated section

Row | Structure (SMILES) | control value (Test 2) [1] | control value (Test 3) [2] | control value (Test 1) [3]
1 | CC(C)S(=O)(=O)Oc1cccc2c1COC(c1csc(C3CCN(C(=O)Cn4nc(C(F)F)cc4C(F)F)CC3)n1)OC2 (stereo not drawn) [Compound 1-53] | 100 | 100 | 100
2 | CCCCS(=O)(=O)Oc1cccc2c1COC(c1csc(C3CCN(C(=O)Cn4nc(C(F)F)cc4C(F)F)CC3)n1)OC2 (stereo not drawn) [Compound 1-54] | 100 | 100 | 100
3 | O=C(Cn1nc(C(F)F)cc1C(F)F)N1CCC(c2nc(C3OCc4c(F)c(F)c(F)c(F)c4CO3)cs2)CC1 [Compound 1-55] | 100 | 100 | 100
4 | Cc1cc(C(F)(F)F)nn1CC(=O)N1CCC(c2nc(C3OCc4cccc(-c5ccccc5)c4CO3)cs2)CC1 (stereo not drawn) [Compound 1-56] | 100 | 100 | 90
5 | O=C(Cn1nc(C(F)F)cc1C(F)F)N1CCC(c2nc(C3OCc4cccc(Cl)c4CO3)cs2)CC1 (stereo not drawn) [Compound 1-58] | 100 | 100 | 100
6 | CCCCCCCCS(=O)(=O)Oc1cccc2c1COC(c1csc(C3CCN(C(=O)Cn4nc(C(F)F)cc4C(F)F)CC3)n1)OC2 (stereo not drawn) [Compound 1-59] | 100 | 100 | 100
7 | O=C(Cn1nc(C(F)F)cc1C(F)F)N1CCC(c2nc(C3OCc4ccc(C(F)(F)F)cc4CO3)cs2)CC1 (stereo not drawn) [Compound 1-60] | 100 | 100 | 100
8 | O=C(Cn1nc(C(F)F)cc1C(F)F)N1CCC(c2nc(C3OCc4cc5c(cc4CO3)CCC5)cs2)CC1 [Compound 1-61, 4-[4-(1,5,7,8,9-pentahydro-3H-2,4-indenodioxepin-3-yl)-2-thiazolyl]-1-[2-[3,5-bis(difluoromethyl)-1H-pyrazole-1-yl]acetyl]piperidine] | 100 | 100 | 100
9 | CON=Cc1cccc2c1COC(c1csc(C3CCN(C(=O)Cn4nc(C(F)(F)F)cc4C)CC3)n1)OC2 (stereo not drawn) [Compound 1-63] | 100 | 100 | 100
10 | Cc1cc(OS(C)(=O)=O)c2c(c1C)COC(c1csc(C3CCN(C(=O)Cn4nc(C(F)(F)F)cc4C)CC3)n1)OC2 (stereo not drawn) [Compound 1-64] | 100 | 100 | 100
11 | Cc1cc(C(F)(F)F)nn1CC(=O)N1CCC(c2nc(C3OCc4c(Cl)ccc(OS(C)(=O)=O)c4CO3)cs2)CC1 (stereo not drawn) [Compound 1-65] | 100 | 100 | 100
12 | Cc1cc(C(F)(F)F)nn1CC(=O)N1CCC(c2nc(C3OCc4c(Br)ccc(OS(C)(=O)=O)c4CO3)cs2)CC1 (stereo not drawn) [Compound 1-66] | 100 | 100 | 100
13 | CC(C)S(=O)(=O)Oc1cccc2c1COC(c1csc(C3CCN(C(=O)Cn4nc(C(F)(F)F)cc4C(F)(F)F)CC3)n1)OC2 (stereo not drawn) [Compound 1-67] | 100 | 100 | 100
14 | CCCCS(=O)(=O)Oc1cccc2c1COC(c1csc(C3CCN(C(=O)Cn4nc(C(F)(F)F)cc4C(F)(F)F)CC3)n1)OC2 (stereo not drawn) [Compound 1-68] | 100 | 100 | 100
15 | Cc1cc(C(F)(F)F)nn1CC(=O)N1CCC(c2nc(C3OCc4cccc(C=NN(C)C)c4CO3)cs2)CC1 (stereo not drawn) [Compound 1-71] | 100 | 100 | 100
16 | O=C(Cn1nc(C(F)F)cc1C(F)F)N1CCC(c2nc(C3OCc4cccc(-c5ccccc5)c4CO3)cs2)CC1 (stereo not drawn) [Compound 1-73] | 100 | 100 | 90
17 | COc1ccc([N+](=O)[O-])c2c1COC(c1csc(C3CCN(C(=O)Cn4nc(C(F)F)cc4C(F)F)CC3)n1)OC2 (stereo not drawn) [Compound 1-74] | 100 | 100 | 100
18 | O=C(Cn1nc(C(F)F)cc1C(F)F)N1CCC(c2nc(C3OCc4ccccc4CO3)cs2)CC1 [Compound 1-76] | 100 | 100 | 100
19 | O=C(Cn1nc(C(F)F)cc1C(F)F)N1CCC(c2nc(C3OCc4cc5ccccc5cc4CO3)cs2)CC1 [Compound 1-77] | 100 | 100 | 100

Row | Structure (SMILES) | control value (Test 2) [1] | control value (Test 3) [2] | control value (Test 1) [3]
20 | O=C(Cn1nc(C(F)F)cc1C(F)F)N1CCC(c2nc(C3OCc4ccc(F)cc4CO3)cs2)CC1 (stereo not drawn) [Compound 1-80] | 100 | 100 | 100
21 | O=C(Cn1nc(C(F)F)cc1C(F)F)N1CCC(c2nc(C3OCc4ccc(C(F)(F)F)cc4CO3)cs2)CC1 (stereo not drawn) [Compound 1-81] | 100 | 100 | 100
22 | COc1ccc(Br)c2c1COC(c1csc(C3CCN(C(=O)Cn4nc(C(F)(F)F)cc4C(F)(F)F)CC3)n1)OC2 (stereo not drawn) [Compound 1-82] | 100 | 100 | 100
23 | COc1ccc([N+](=O)[O-])c2c1COC(c1csc(C3CCN(C(=O)Cn4nc(C(F)(F)F)cc4C(F)(F)F)CC3)n1)OC2 (stereo not drawn) [Compound 1-83] | 100 | 100 | 100
24 | O=C(Cn1nc(C(F)(F)F)cc1C(F)(F)F)N1CCC(c2nc(C3OCc4ccccc4CO3)cs2)CC1 [Compound 1-85] | 100 | 100 | 100
25 | COc1ccc(OC(F)(F)F)c2c1COC(c1csc(C3CCN(C(=O)Cn4nc(C(F)(F)F)cc4C)CC3)n1)OC2 (stereo not drawn) [Compound 1-86] | 100 | 100 | 100
26 | CS(=O)(=O)Oc1ccc(F)c2c1COC(c1csc(C3CCN(C(=O)Cn4nc(C(F)(F)F)cc4C(F)(F)F)CC3)n1)OC2 (stereo not drawn) [Compound 1-87] | 100 | 100 | 100
27 | CC1OC(c2csc(C3CCN(C(=O)Cn4nc(C(F)(F)F)cc4C(F)(F)F)CC3)n2)OCc2ccccc21 (stereo not drawn) [Compound 1-88] | 100 | 100 | 100
28 | O=C(Cn1nc(C(F)(F)F)cc1C(F)(F)F)N1CCC(c2nc(C3OCc4cc5ccccc5cc4CO3)cs2)CC1 [Compound 1-89] | 100 | 100 | 80
29 | CC(C)(C)c1ccc2c(c1)COC(c1csc(C3CCN(C(=O)Cn4nc(C(F)(F)F)cc4C(F)(F)F)CC3)n1)OC2 (stereo not drawn) [Compound 1-92] | 90 | 90 | 100
30 | O=C(Cn1nc(C(F)(F)F)cc1C(F)(F)F)N1CCC(c2nc(C3OCc4cccc(Cl)c4CO3)cs2)CC1 (stereo not drawn) [Compound 1-93] | 100 | 100 | 100
31 | Cc1cc(C(F)(F)F)nn1CC(=O)N1CCC(c2nc(C3OCc4cccc(OC(F)F)c4CO3)cs2)CC1 (stereo not drawn) [Compound 1-94] | 100 | 100 | 100
32 | Cc1cc(C(F)(F)F)nn1CC(=O)N1CCC(c2nc(C3OCc4ccc(Br)cc4CO3)cs2)CC1 (stereo not drawn) [Compound 1-98] | 100 | 100 | 100
33 | O=C(Cn1nc(C(F)F)cc1C(F)F)N1CCC(c2nc(C3OCc4ccc(Br)cc4CO3)cs2)CC1 (stereo not drawn) [Compound 1-99] | 100 | 100 | 100
34 | Cc1cc(C(F)(F)F)nn1CC(=O)N1CCC(c2nc(C3OCc4c(I)ccc(OS(C)(=O)=O)c4CO3)cs2)CC1 (stereo not drawn) [Compound 1-101] | 100 | 100 | 100
35 | Cc1cc(C(F)(F)F)nn1CC(=O)N1CCC(c2nc(C3OCc4c(Cl)ccc(OS(C)(=O)=O)c4CO3)cs2)CC1 (stereo not drawn) [Compound 1-102] | 100 | 100 | 100
36 | Cc1cc(C(F)(F)F)nn1CC(=O)N1CCC(c2nc(C3OCc4c(OS(C)(=O)=O)ccc(OS(C)(=O)=O)c4CO3)cs2)CC1 [Compound 1-103] | 100 | 100 | 100
37 | Cc1cc(C(F)(F)F)nn1CC(=O)N1CCC(c2nc(C3OCc4cccc(C#N)c4CO3)cs2)CC1 (stereo not drawn) [Compound 1-104] | 100 | 100 | 100
